Measurements as given in patent publication US4585589A, “Water-soluble alkanoyloxy and alkoxycarbonyloxy rifampicin derivatives, process for its preparation, intermediates, and its pharmaceutical composition as antibacterials” (Gruppo Lepetit S.p.A., priority 1983, dated 1986).
≈ marks a conversion by molar mass, not a printed value. Where two headings read alike, the source gives them in different places.

Columns and labels:
[1] = solubility in water containing 2% ascorbic acid (solution A) and in water containing 2% ascorbic acid and 10% propylene glycol (solution B), with pH of the resulting solutions; assay type: physicochemical
Description: The compounds of the present invention show a marked solubility in water as well as in mixtures of water with other pharmaceutically acceptable solvents miscible with water. In particular, the solubility of the compounds of the present invention in comparison with rifampicin was assayed in water containing 2% ascorbic acid (solution A) and in water containing 2% ascorbic acid and 10% propylene glycol (solution B) and the pH of the resulting solutions was recorded.

[2] = tested on: Staphylococcus aureus Tour; test: antibacterial activity in mice infected with Staphylococcus aureus Tour; assay type: in vivo; details: sc, values in parentheses as printed, read-out: ED50 against S. aureus Tour
Description: As expected, this slight delay in hydrolysis in vivo reflects in a median effective dose (ED50) for the compounds of formula I somewhat higher than for rifampicin. In particular the antibacterial activity of the compounds of the present invention was tested in mice infected with Staphylococcus aureus Tour.

[3] = cited from earlier work
[4] = solution A: water containing 2% ascorbic acid
[5] = water with 2% ascorbic acid, solution A: water containing 2% ascorbic acid, read-out: solubility

pH of the resulting solution [1, 4] | solubility [1, 5] [mg/mL] | SMILES | ED50 [2] [mg/kg] | other results
4.5 | > 300 | CO[C@H]1/C=C/O[C@@]2(C)Oc3c(C)c(OC(C)=O)c4c(O)c(c(/C=N/N5CCN(C)CC5)c(OC(C)=O)c4c3C2=O)NC(=O)/C(C)=C\C=C\[C@H](C)[C@H](O)[C@@H](C)[C@@H](O)[C@@H](C)[C@H](OC(C)=O)[C@@H]1C [Example 7] | 1.5 | –
4.0 | 100 (≈ 116 mM) | CO[C@H]1/C=C/O[C@@]2(C)Oc3c(C)c(OC(C)=O)c4c(O)c(c(/C=N/N5CCN(C)CC5)c(O)c4c3C2=O)NC(=O)/C(C)=C\C=C\[C@H](C)[C@H](O)[C@@H](C)[C@@H](O)[C@@H](C)[C@H](OC(C)=O)[C@@H]1C [Example 4, 3-[[(4-methyl-1-piperazinyl)imino]methyl]rifamycin 8-acetate] | 0.35 | solubility ([1]; organic solvent or mixture, solution B: water containing 2% ascorbic acid and 10% propylene glycol, read-out: solubility): 150 mg/mL (≈ 173 mM); pH of the resulting solution ([1]; solution B: water containing 2% ascorbic acid and 10% propylene glycol): 4.2
– | – | CO[C@H]1/C=C/O[C@@]2(C)Oc3c(C)c(O)c4c(O)c(c(/C=N/N5CCN(C)CC5)c(O)c4c3C2=O)NC(=O)/C(C)=C\C=C\[C@H](C)[C@H](O)[C@@H](C)[C@@H](O)[C@@H](C)[C@H](OC(C)=O)[C@@H]1C [rifampicin, 3-[[(4-methyl-1-piperazinyl)imino]methyl]rifamycin] | – | pH of the resulting solution ([1]; in either solution (A or B)): 3.5-3.6; solubility ([1]; water with 2% ascorbic acid): < 50 mg/mL; solubility in various aqueous media [3]: lower than 20 mg/ml
– | – | CCC(=O)Oc1c(C)c2c3c4c(O)c(/C=N/N5CCN(C)CC5)c(c(O)c14)NC(=O)/C(C)=C\C=C\[C@H](C)[C@H](O)[C@@H](C)[C@@H](O)[C@@H](C)[C@H](OC(C)=O)[C@H](C)[C@@H](OC)/C=C/O[C@@](C)(O2)C3=O [Example 5, 3-[[(4-methyl-1-piperazinyl)imino]methyl]rifamycin 8-pro-panoate] | 1.2 | –
– | – | CCOC(=O)Oc1c(C)c2c3c4c(O)c(/C=N/N5CCN(C)CC5)c(c(O)c14)NC(=O)/C(C)=C\C=C\[C@H](C)[C@H](O)[C@@H](C)[C@@H](O)[C@@H](C)[C@H](OC(C)=O)[C@H](C)[C@@H](OC)/C=C/O[C@@](C)(O2)C3=O [Example 6, 3-[[(4-methyl-1-piperazinyl)imino]methyl]rifamycin 8-ethylcarbonate] | 0.76 | –
